From patent US20240166598A1, “COMPOUNDS, COMPOSITIONS, AND METHODS OF USING THE SAME” (priority 2021, published 2024)
Like-named read-outs stand apart in the source and are kept apart here.

Legend:
SARS CoV-2 PLpro [1] = target: T1, SARS CoV-2 PLpro (Severe acute respiratory syndrome coronavirus 2 (2019-nCoV) (SARS-CoV-2), UniProt P0DTD1); assay: biochemical; format: biochemical
SARS CoV-2 PLpro [2] = target: T1, SARS CoV-2 PLpro; assay: biochemical; format: binding
SARS CoV-2 PLpro [3] = target: T1, SARS CoV-2 PLpro; assay: biochemical; settings: Table 8; read-out: FRET Enzymatic assay IC50
SARS CoV-2 PLpro [4] = target: T1, SARS CoV-2 PLpro; assay: cell-based; settings: read-out: FlipGFP-PLpro assay EC50
in vitro [5] = settings: human, microsomes
[6] = for In vitro CIint / Scale-up CIint: human
in vitro [7] = settings: human, Caco-2
[8] = read-out: SPR binding assays KD
[9] = read-out: Enzyme inhibition IC50
[10] = Table 7, read-out: Enzymatic assay IC50

**Q.** Which “PLpro inhibition potency, in words (SAR)” value (SARS CoV-2 PLpro [1]) does the source give for `Cc1ccc(N)cc1CNC(C)c1cccc2ccccc12` (stereo not shown) [DY2-64] here?
**A.** sharp decline in potency

**Q.** What does the source list for `Cc1ccc(NC(=O)C2CN(C(=O)OC(C)(C)C)C2)cc1C(=O)N[C@H](C)c1cccc2ccccc12` [Example 3, Tert-butyl (R)-3-((4-methyl-3-((1-(naphthalen-1-yl)ethyl)carbamoyl)phenyl)carbamoyl)azetidine-1-carboxylate]?
**A.** Kd (SARS CoV-2 PLpro [2]; read-out: SPR binding assay KD): 32.6 µM; IC50 (SARS CoV-2 PLpro [1]; read-out: Enzymatic assay IC50): 5.5 µM

**Q.** For `Cc1ccc(N)cc1S(=O)(=O)NC(C)c1cccc2ccccc12` (stereo not shown) [DY3-63], which “PLpro inhibition potency, in words (SAR)” value (SARS CoV-2 PLpro [1]) is on record?
**A.** sharp decline in potency

**Q.** What does the source list for `Cc1ccc(NC2CN(C(=O)OC(C)(C)C)C2)cc1C(=O)N[C@H](C)c1cccc2ccccc12` [ZN-2-180]?
**A.** Kd (SARS CoV-2 PLpro [2]; [8]): 16 µM; IC50 (SARS CoV-2 PLpro [1]; [9]): 6.08 µM

**Q.** What does the source list for `C=C(N[C@H](C)c1cccc2ccccc12)C(=O)c1cc(N(C)C2CNC2)ccc1Cl` [ZN-3-70]?
**A.** Kd (SARS CoV-2 PLpro [2]; Table 10, read-out: SPR binding assays KD): 41.9 µM; IC50 (SARS CoV-2 PLpro [1]; Table 10, read-out: Enzyme inhibition IC50): 10.7 µM

**Q.** What does the source list for `Cc1ccc(N)cc1C(=O)N[C@H](C)c1c(O)ccc2ccccc12` [Example 27, (R)-5-amino-N-(1-(2-hydroxynaphthalen-1-yl)ethyl)-2-methylbenzamide]?
**A.** Kd (SARS CoV-2 PLpro [2]; read-out: SPR binding assay KD): 184 µM; IC50 (SARS CoV-2 PLpro [1]; [10]): > 100 µM

**Q.** With `Cc1ccc(OC2CNC2)cc1C(=O)N[C@H](C)c1cccc(-c2ccc(CN[C@H]3CC[C@@H](C(=O)OC[C@H]4O[C@@H](n5ccc(NO)nc5=O)[C@H](O)[C@@H]4O)C3)s2)c1` as the molecule, how does the IC50 (SARS CoV-2 PLpro [3]) read?
**A.** 0.75 ± 0.05 µM

**Q.** What about the EC50 (SARS CoV-2 PLpro [4]) of the same molecule?
**A.** > 20 µM

**Q.** For `Cc1ccc(N)cc1S(=O)(=O)N[C@H](C)c1cccc2ccccc12` [Example 48, (R)-5-amino-2-methyl-N-(1-(naphthalen-1-yl)ethyl)benzenesulfonamide], which IC50 (SARS CoV-2 PLpro [1]; [10]) is on record?
**A.** > 100 µM

**Q.** With `Cc1ccc(N)cc1C(=O)NC(CO)c1cccc2ccccc12` (stereo not shown) [Example 26, 5-amino-N-(2-hydroxy-1-(naphthalen-1-yl)ethyl)-2-methylbenzamide] as the molecule, how does the IC50 (SARS CoV-2 PLpro [1]; [10]) read?
**A.** ~100 µM

**Q.** With `Cc1ccc(NC(=O)C2CCN(C(=O)OC(C)(C)C)CC2)cc1C(=O)N[C@H](C)c1cccc2ccccc12` [Example 4, Tert-butyl (R)-4-((4-methyl-3-((1-(naphthalen-1-yl)ethyl)carbamoyl)phenyl)carbamoyl)piperidine-1-carboxylate] as the molecule, how does the Kd (SARS CoV-2 PLpro [2]; read-out: SPR binding assay KD) read?
**A.** 31.1 µM

**Q.** What about the IC50 (SARS CoV-2 PLpro [1]; read-out: Enzymatic assay IC50) of the same molecule?
**A.** 6 µM

**Q.** What does the source list for `Cc1ccc(NC2CNC2)cc1C(=O)N[C@H](C)c1cccc(-c2ccc(CN3CC[C@H](O)C3)s2)c1` [XR8-57]?
**A.** half-life (in vitro [5]): 85.4 h; In vitro CIint [6]: 0.27 μL/min/mg protein; Scale-up CIint [6]: 0.34 mL/min/kg

**Q.** With `CC(C)NCC(O)COc1cccc2ccccc12` (stereo not shown) [Propranolol] as the molecule, how does the Papp A→B (in vitro [7]) read?
**A.** 17.9 ×10⁻⁶ cm/s

**Q.** And the Papp B→A (in vitro [7])?
**A.** 18.3 ×10⁻⁶ cm/s

**Q.** What about the efflux ratio (in vitro [7]) of the same molecule?
**A.** 1.02

**Q.** With `Cc1ccc(OC2CNC2)cc1C(=O)N[C@H](C)c1cccc(-c2ccc(CN[C@H]3CC[C@@H](O)C3)o2)c1` as the molecule, how does the IC50 (SARS CoV-2 PLpro [3]) read?
**A.** 3.02 ± 0.58 µM

**Q.** And the EC50 (SARS CoV-2 PLpro [4])?
**A.** > 60 µM

**Q.** Which IC50 (SARS CoV-2 PLpro [1]; [10]) does the source give for `Cc1ccc(NC2CNC2)cc1C(=O)N[C@H](C)c1cccc(-c2ccc(CN[C@H]3CC[C@@H](OC(=O)/C=C/c4cccnc4)C3)s2)c1` here?
**A.** 0.387 µM

**Q.** Which IC50 (SARS CoV-2 PLpro [1]; [10]) does the source give for `CN(C)CC[C@@H](NC(=O)c1cccc(N(C)C2CNC2)c1)c1cccc2ccccc12` [Example 41, (R)-3-(azetidin-3-yl(methyl)amino)-N-(3-(dimethylamino)-1-(naphthalen-1-yl)propyl)benzamide] here?
**A.** > 100 µM

**Q.** Which Kd (SARS CoV-2 PLpro [2]; read-out: SPR binding assay KD) does the source give for `Cc1ccc(N(C)C2CNC2)cc1C(=O)N[C@H](C)c1cccc2c1ccn2CC1CCC1` [Example 50, (R)-5-(azetidin-3-yl(methyl)amino)-N-(1-(1-(cyclobutylmethyl)-1H-indol-4-yl)ethyl)-2-methylbenzamide] here?
**A.** 14.1 µM

**Q.** And the IC50 (SARS CoV-2 PLpro [1]; read-out: Enzymatic assay IC50)?
**A.** 3.3 µM

**Q.** With `Cc1ccc(OC2CNC2)cc1C(=O)N[C@H](C)c1cccc(-c2ccc(CN[C@H]3CC[C@@H](C(=O)NCCOCCOCCOCCOCCNc4cccc5c4C(=O)N(C4CCC(=O)NC4=O)C5=O)C3)s2)c1` (stereo partly shown) as the molecule, how does the IC50 (SARS CoV-2 PLpro [3]) read?
**A.** 1.67 ± 0.33 µM

**Q.** And the EC50 (SARS CoV-2 PLpro [4])?
**A.** > 20 µM

**Q.** Which half-life (in vitro [5]) does the source give for `Cc1ccc(NC2CNC2)cc1C(=O)N[C@H](C)c1cccc(-c2cccs2)c1` (single isomer, unassigned) [ZN-3-80] here?
**A.** 4.1 h

**Q.** And the “In vitro CIint” value [6]?
**A.** 5.64 μL/min/mg protein

**Q.** What about the “Scale-up CIint” value [6] of the same molecule?
**A.** 7.07 mL/min/kg

**Q.** And the “stability in human liver microsome stability assays, in words” value ([6]; microsomes)?
**A.** more stable than GRL0617

**Q.** What about the Ave ka (SARS CoV-2 PLpro [2]; SPR association rate, average of replicates) of the same molecule?
**A.** 351000 M⁻¹ s⁻¹

**Q.** And the ka1 (SARS CoV-2 PLpro [2]; SPR association rate, replicate 1)?
**A.** 291000 M⁻¹ s⁻¹

**Q.** What about the ka2 (SARS CoV-2 PLpro [2]; SPR association rate, replicate 2) of the same molecule?
**A.** 334000 M⁻¹ s⁻¹

**Q.** And the ka3 (SARS CoV-2 PLpro [2]; SPR association rate, replicate 3)?
**A.** 303000 M⁻¹ s⁻¹

**Q.** What about the ka4 (SARS CoV-2 PLpro [2]; SPR association rate, replicate 4) of the same molecule?
**A.** 477000 M⁻¹ s⁻¹

**Q.** And the Ave kd (SARS CoV-2 PLpro [2]; SPR dissociation rate, average of replicates)?
**A.** 0.327 s⁻¹

**Q.** What about the kd1 (SARS CoV-2 PLpro [2]; SPR dissociation rate, replicate 1) of the same molecule?
**A.** 0.318 s⁻¹

**Q.** What about the kd2 (SARS CoV-2 PLpro [2]; SPR dissociation rate, replicate 2) of the same molecule?
**A.** 0.369 s⁻¹

**Q.** What about the kd3 (SARS CoV-2 PLpro [2]; SPR dissociation rate, replicate 3) of the same molecule?
**A.** 0.290 s⁻¹

**Q.** What about the kd4 (SARS CoV-2 PLpro [2]; SPR dissociation rate, replicate 4) of the same molecule?
**A.** 0.332 s⁻¹

**Q.** With `Cc1ccc(NC2CCN(C(=O)OC(C)(C)C)CC2)cc1C(=O)N[C@H](C)c1cccc2ccccc12` [ZN-2-181] as the molecule, how does the Kd (SARS CoV-2 PLpro [2]; [8]) read?
**A.** 4.7 µM

**Q.** And the IC50 (SARS CoV-2 PLpro [1]; [9])?
**A.** 1.1 µM
